Reference: US20070043091A1, “Kv1.5-BLOCKER FOR THE SELECTIVE INCREASE OF ATRIAL CONTRACTILITY AND TREATMENT OF CARDIAC [sequence]” (SANOFI-AVENTIS DEUTSCHLAND GMBH, priority 2004, published 2007)
Entries after “also recorded” stand apart in the source; their conditions may differ.

How the values were obtained:
pig left atrium [1] = assay: Effect of Kv1.5 blockers on atrial contractility in anesthetized pigs, sinus rhythm; format: in vivo, German Landrace pigs; conditions: 1 mg/kg i.v.
Description: (§1) A) Test of the Effect of Kv1.5 Blockers on Atrial Contractility in Anesthetized Pigs
(§2) Material and methods: German Landrace pigs were premedicated by an intramuscular injection of 2.5-3.5 mg/kg each of xylazine, tiletamine and zolazepam in a mixing syringe. The anesthesia was induced with pentobarbital (approx. 30 mg/kg i.v.) and maintained by continuous infusion of pentobarbital (12-17 mg/kg/h).
(§3) After induction of anesthesia and after a tracheotomy, the animals were intubated and ventilated with a mixture of ambient air with 40% oxygen.
(§4) The ventilation rate and volume were governed by regularly measured blood gas and pH levels. The body temperature was continuously recorded and controlled by a heated underlay and/or red light lamp and/or warming of the breathed air to keep it constant (about 37-38° C.).
The following blood vessels of the pigs were exposed and cannulated:
External jugular vein (anesthesia infusion), carotid artery (introduction of a tip manometer catheter in the left ventricle to record the pressure there), lateral saphenous vein (dosage of test substance), epigastrica cranialis superficialis vein (fluid infusion), femoral artery (peripheral blood pressure recording) and femoral vein (introduction of MAP catheter right atrium).
The parameters responsible for the contractility are determined using two ultrasonic sensors on the left atrium (P/N JP 5-2, Triton Technology®) [references 1 and 2]. These two piezoelectric sensors are implanted in the cranio-caudal direction through punctuate incisions at the extreme edge of the atrium. The incisions were each closed with a U stitch (2-0 Vicryl®).
The two ultrasonic sensors were than connected to the evaluation unit. In addition, a pressure-measuring catheter was implanted at the ventral edge of the atrium in order to record the left atrial pressure.
The left atrial systolic shortening (LASS) was determined from the atrial diameter at the start of the active atrial pressure curve and the minimum diameter. Since the atrial contractility depends on the initial extension, the left atrial systolic shortening was divided by the value at the start of active atrial contraction (LASS index). The maximum steepness of the contraction curve was determined by importing the raw data points to Microsoft Excel for calculation of the maximum steepness of the curve. In order to exclude breathing-related variations, at least 10 cardiac cycles were analyzed. This parameter, which likewise indicates an improved contractility, is referred to as LASS steepness.
Recording of the initial values was followed by infusion for 10 minutes of the vehicle which was used later and is composed of 0.5 ml of DMSO, 2.5 ml of PEG and 2.0 ml of glucose G20. […]

pig left atrium [2] = assay: Effect on atrial contractility in anesthetized pigs after one hour of induced atrial fibrillation; format: in vivo, German Landrace pigs
Description: as §1, §2, §3
In a further series of experiments, the test substance was administered only after one hour of atrial fibrillation induced by persistent high-frequency stimulation (1200 beats/min) of the right atrium. In this case, the parameters of atrial contractility were recorded before/after the period of fibrillation and after administration of the test substance and compared with those after the vehicle control.
as §4
The following blood vessels of the pigs were exposed and cannulated: […]
The parameters responsible for the contractility are determined using two ultrasonic sensors on the left atrium (P/N JP 5-2, Triton Technology®) [references 1 and 2]. […]
The left atrial systolic shortening (LASS) was determined from the atrial diameter at the start of the active atrial pressure curve and the minimum diameter. […] The maximum steepness of the contraction curve was determined by importing the raw data points to Microsoft Excel for calculation of the maximum steepness of the curve. In order to exclude breathing-related variations, at least 10 cardiac cycles were analyzed. […]

[3] = tested on: pigs with pericardial air instillation; assay: Left ventricular ejection (cardiac output) in a model of diastolic dysfunction, pericardial air instillation; format: in vivo; conditions: for Cardiac output, % of the initial value before example 1 / Cardiac output, % of the initial value before instillation / Cardiac output, average: 3 mg/kg i.v. over 30 min
Description: B) Improved Left Ventricular Ejection after Kv1.5 Blockers in a Model of Diastolic Dysfunction Methods: Pigs were anesthetized as described in A) and thoracotomized. A flow sensor was attached over the aorta to measure the cardiac output. In a stable hemodynamic situation, air (approx. 30 ml) was instilled into the pericardial using a cannula. The intention of pericardial air instillation is to impede ventricular filling, which eventually leads to a decreased cardiac output (diastolic heart failure). […] The pericardial air instillation leads to a distinct reduction in the cardiac output (table 3).

[4] = time not given (start of infusion)

Compound: CCCCS(=O)(=O)Nc1ccccc1C(=O)N[C@H](CC)c1ccc(OC)nc1 (single isomer, unassigned) [Example 5]
- LASS, increase in % (pig left atrium [1]; after vs before administration): 68%
- LASS, absolute values, after administration (pig left atrium [1]; n = 8): 8.25 ± 1.43

Compound: COc1ccc(CC(=O)NCc2ccccc2-c2ccccc2C(=O)NCCc2cccnc2)cc1 [Example 1, N-(2-pyridin-3-ylethyl)-2′-{[2-(4-methoxyphenyl)acetylamino]-methyl}biphenyl-2-carboxamide]
- LACC steepness, absolute values (pig left atrium [2]; 1 mg/kg i.v., after 1 hour atrial fibrillation): -0.197 cm/s
- LACC steepness, in % of the initial value (pig left atrium [2]; 1 mg/kg i.v., after 1 hour atrial fibrillation, initial value = before AF): 112.6%
- atrial function / contractility, in words (pig left atrium [2]; after one hour of atrial fibrillation): statistically significant improvement; also recorded: above the base line level
- LACC steepness, absolute value, after administration (pig left atrium [1]): -0.152 ± 0.02 cm/s
- LACC steepness, increase in % (pig left atrium [1]; after vs before administration): +38.2%
- Cardiac output, % of the initial value before example 1 ([3]; 2′): 102%
- Cardiac output, % of the initial value before instillation ([3]; 2′): 72%
- Cardiac output, average ([3]; 2′): 1.55 L/min
- Cardiac output, % of the initial value before example 1 ([3]; 5′): 104%
- Cardiac output, % of the initial value before instillation ([3]; 5′): 73%
- Cardiac output, average ([3]; 5′): 1.58 L/min
- Cardiac output, % of the initial value before example 1 ([3]; 10′): 111%
- Cardiac output, % of the initial value before instillation ([3]; 10′): 78%
- Cardiac output, average ([3]; 10′): 1.69 L/min
- Cardiac output, % of the initial value before example 1 ([3]; 15′): 117%
- Cardiac output, % of the initial value before instillation ([3]; 15′): 82%
- Cardiac output, average ([3]; 15′): 1.78 L/min
- Cardiac output, % of the initial value before example 1 ([3]; 20′): 121%
- Cardiac output, % of the initial value before instillation ([3]; 20′): 84%
- Cardiac output, average ([3]; 20′): 1.84 L/min
- Cardiac output, % of the initial value before example 1 ([3]; 25′): 123%
- Cardiac output, % of the initial value before instillation ([3]; 25′): 86%
- Cardiac output, average ([3]; 25′): 1.88 L/min
- Cardiac output, % of the initial value before example 1 ([3]; 30′): 125%
- Cardiac output, % of the initial value before instillation ([3]; 30′): 87%
- Cardiac output, average ([3]; 30′): 1.90 L/min
- Cardiac output, % of the initial value before example 1 ([3]; 35′): 120%
- Cardiac output, % of the initial value before instillation ([3]; 35′): 85%
- Cardiac output, average ([3]; 35′): 1.83 L/min
- Cardiac output, % of the initial value before example 1 ([3]; 40′): 117%
- Cardiac output, % of the initial value before instillation ([3]; 40′): 83%
- Cardiac output, average ([3]; 40′): 1.79 L/min
- Cardiac output, % of the initial value before example 1 ([3]; 50′): 116%
- Cardiac output, % of the initial value before instillation ([3]; 50′): 82%
- Cardiac output, average ([3]; 50′): 1.76 L/min
- Cardiac output, % of the initial value before example 1 ([3]; 60′): 111%
- Cardiac output, % of the initial value before instillation ([3]; 60′): 79%
- Cardiac output, average ([3]; 60′): 1.69 L/min
- Cardiac output, % of the initial value before example 1 ([3]; 70′): 108%
- Cardiac output, % of the initial value before instillation ([3]; 70′): 78%
- Cardiac output, average ([3]; 70′): 1.65 L/min
- Cardiac output, % of the initial value before example 1 [3, 4]: 100%
- Cardiac output, % of the initial value before instillation [3, 4]: 71%
- Cardiac output, average [3, 4]: 1.53 L/min
- maximum increase in the reduced cardiac output ([3]; 3 mg/kg infused in 30 min, n=11): 25%
